Experimental data from US20260188423A1, “IDENTIFICATION OF CELL SURFACE ANTIGENS WHICH INDUCE T-CELL RESPONSES AND THEIR USES” (priority 2022, published 2026).
Where two headings read alike, the source gives them in different places.

Columns and labels:
[1] = tested on: CD8^+ T-cells; conditions: log-fold change, cited from earlier work
[2] = tested on: antigen-specific T-cell clone; conditions: peptide pool, response attributed to the dominant epitope, cited from earlier work
[3] = tested on: peritoneal tumour biopsies; assay: Transcriptome analysis of the Murcia patient's peritoneal tumour biopsies; conditions: target of 2nd generation personalized vaccines
From the text: All the putative 8-20 amino acids long epitopes were created from these proteins and used for designing the 2nd generation of personalized vaccines according to the invention. […] These antigens have different length and amino acid sequences. All selected peptide antigen contains multiple highly ranked epitopes (13-66) presented on the cell surface by the patient's HLA class I and class II molecules. The range of the potency score is indicated for the selected epitopes. Epitopes presented by the patient's HLA class I and class II molecules are indicated to induce CD8 and CD4 responses, respectively. As described in the invention, the potency of each epitope in the vaccines was calculated and indicated to inform the physician about the predicted efficacy of the personalised vaccines in the recipient.

[4] = tested on: peripheral mononuclear cells; assay: ELISPOT of T-cell responses to vaccine peptides after 1st immunization of the breast cancer patient; format: in vivo, human; conditions: after the 1st immunization; for ELISpot: 5 days culture of PBMC from the patient
From the text: In the prior art, HLA-binding based epitope selection methods have been used for vaccine development. The epitopes in the personal vaccines made for the breast cancer patient were selected to bind at least 3 HLAs of the subject as described in the published US patent application 2018/264094. […] The potency of T-cell responses against the tumor antigens were predicted by the system described above (using HLA class I EWS, HLA class II EWS and overall EWS). The potency of T-cell responses to the vaccine peptides after the 1st immunization were measured with ELISPOT assay after 5 days culture of the peripheral mononuclear cells isolated from a blood sample of the patient (Spots/10^6 PBMC).

[5] = tested on: HeLa cells; assay: Cellular uptake of fluorescent-labeled peptide vaccines, flow cytometry; format: cell-based, human; conditions: for cells taking up the vaccine: 40 μM, within 30 minutes; for cellular uptake (intensity of fluorescence) compared to control: flow cytometry, control without R8
Experimental: (§1) Methods: HeLa cells were seeded at a density of 200,000 cells per well in 6-well plates and allowed to grow for one day. On the second day, the cells were treated with the peptides at three different concentrations (2.5 μM, 10 μM, and 40 μM) for two different incubation times (15 minutes and 30 minutes). After the treatment, the cells were detached using trypsin, washed, and resuspended in PBS. The cells were then analyzed using a FACS Canto flow cytometer. A total of 30,000 events were acquired, and the percentage of fluorescent cells and fluorescent intensity (geometric mean and median) were determined through flow analysis.
as §1, with “Methods” for “Methods:”

[6] = ABF cohort individual BC10, Healthy
[7] = ABF cohort individual AP0201, Hospitalized
[8] = Subject 1327414, cohort Healthy
[9] = Subject 1005699, cohort COVID-19-Acute

AADLDDFSKQL [SARS-COV-2 peptide of the ABF cohort data]
LFC [1, 6]: 0

ADLDDFSKQL [SARS-COV-2 peptide of the ABF cohort data]
LFC [1, 7]: 0

AFPFTIYSL [SARS-COV-2 peptide of the ABF cohort data]
LFC [1, 7]: 0

AHAEETRKL [SARS-COV-2 peptide of the ABF cohort data]
LFC [1, 7]: 0

AIMTRCLAV
Hits [2, 8]: 1

ALLADKFPVL [SARS-COV-2 peptide of the ABF cohort data]
LFC [1, 7]: 0
LFC [1, 6]: 0

ALLAVFQSA [SARS-COV-2 peptide of the ABF cohort data]
LFC [1, 6]: 0

ALNTLVKQL
Hits [2, 8]: 1

ALQDAYYRA [SARS-COV-2 peptide of the ABF cohort data]
LFC [1, 6]: 0

ALRKVPTDNY [SARS-COV-2 peptide of the ABF cohort data]
LFC [1, 6]: 0

ALTCFSTQF [SARS-COV-2 peptide of the ABF cohort data]
LFC [1, 6]: 0

ALVYFLQSI [SARS-COV-2 peptide of the ABF cohort data]
LFC [1, 7]: 0

AMDEFIERY [SARS-COV-2 peptide of the ABF cohort data]
LFC [1, 6]: 0

ANPKTPKYKF [SARS-COV-2 peptide of the ABF cohort data]
LFC [1, 7]: 0

APFLYLYAL [SARS-COV-2 peptide of the ABF cohort data]
LFC [1, 7]: 0

APHGVVFL [SARS-COV-2 peptide of the ABF cohort data]
LFC [1, 7]: 0

APHGVVFLHV [SARS-COV-2 peptide of the ABF cohort data]
LFC [1, 7]: 0

APISAMVRM [SARS-COV-2 peptide of the ABF cohort data]
LFC [1, 6]: 0

APKEIIFL [SARS-COV-2 peptide of the ABF cohort data]
LFC [1, 6]: 0

AYILFTRFFYV
Hits [2, 9]: 3
Hits [2, 8]: 1

BLTP2
Relative expression [3]: 95

DLFMRIFTI
Hits [2, 9]: 1

ELIRQGTDY
Hits [2, 9]: 2

FAYANRNRF
Hits [2, 9]: 1

FCNDPFLGVY
Hits [2, 9]: 1

FEYVSQPFL
Hits [2, 9]: 1

FTSSRMSSFNRHMKTHTSEK [CTCFL long-peptide personal vaccine of the breast cancer patient]
ELISpot [4]: 48 Spots/10^6 PBMC

Fluoresc-EEKEIIVIKDTEKKDQS-RRRRRRRR-SQFNVPMLY-NH2 (fluorescein-EEKEIIVIKDTEKKDQSRRRRRRRRSQFNVPMLY-NH2) [AKAP-4-specific Personalized Vaccine, AKAP-4-specific VERDI Vaccine]
cells taking up the vaccine ([5]; HeLa cells): 45%
cellular uptake (intensity of fluorescence) compared to control [5]: significantly higher uptake

Fluoresc-THVDIRTLEDLLMGTL-RRRRRRRR-RAHYNIVTF-NH2 (fluorescein-THVDIRTLEDLLMGTLRRRRRRRRRAHYNIVTF-NH2) [HPV-specific Personalized Vaccine, E7 (HPV16)-specific VERDI Vaccine]
more peptide accumulated in each cell compared to the control vaccines (median fluorescence intensity) ([5]; HeLa cells): approximately 30%
cells taking up the vaccine ([5]; HeLa cells): more than 50%
cells taking up the vaccine ([5]; HeLa cells, listed as HPV-specific vaccine): 53%
cellular uptake (intensity of fluorescence) compared to control [5]: significantly higher uptake

IELSLIDFYL
Hits [2, 9]: 4

ITLATCELY
Hits [2, 9]: 12
Hits [2, 8]: 1

KEIIFLEGETL
Hits [2, 8]: 1

NEQDLVREEAQKMSSLLPTM [SPAG9 long-peptide personal vaccine of the breast cancer patient]
ELISpot [4]: 0 Spots/10^6 PBMC

NVFAFPFTIY
Hits [2, 8]: 19

QEESFSPTAMDAIFGSLSDE [MAGEAA long-peptide personal vaccine of the breast cancer patient]
ELISpot [4]: 0 Spots/10^6 PBMC

RLDQLLRHVMNPLETLSITN [PRAME long-peptide personal vaccine of the breast cancer patient]
ELISpot [4]: 66 Spots/10^6 PBMC

SDTKDYFMSKTLGIGRLKRP [FSIP1 long-peptide personal vaccine of the breast cancer patient]
ELISpot [4]: 257 Spots/10^6 PBMC

SGSSYFVLANGHILPNSENA [FMRINB long-peptide personal vaccine of the breast cancer patient]
ELISpot [4]: 130 Spots/10^6 PBMC

SVLLFLAFV
Hits [2, 8]: 5

SVYADQVNIDYLMNRPQNLR [AKAP4 long-peptide personal vaccine of the breast cancer patient]
ELISpot [4]: 366 Spots/10^6 PBMC
T cell responses (ELISPOT) ([4]; breast cancer patient): 366 spots/million cells

TLPPAWQPFLKDHRISTFKN [BIRC5 long-peptide personal vaccine of the breast cancer patient]
ELISpot [4]: 71 Spots/10^6 PBMC

VASQSIIAY
Hits [2, 9]: 23
Hits [2, 8]: 4

VVFLHVTYV
Hits [2, 9]: 1
Hits [2, 8]: 8

WT1
Relative expression [3]: 59

B1: SPAG9 (protein, UniProt O60271 1-1321, looked up)
C-Jun-amino-terminal …: MELEDGVVYQEEPGGSGAVMSERVSGLAGSIYREFERLIGRYDEEVVKELMPLVVAVLENLDSVFAQDQEHQVELELLRDDNEQLITQYEREKALRKHAEEKFIEFEDSQEQEKKDLQTRVESLESQTRQLELKAKNYADQISRLEEREAELKKEYNALHQRHTEMIHNYMEHLERTKLHQLSGSDQLESTAHSRIRKERPISLGIFPLPAGDGLLTPDAQKGGETPGSEQWKFQELSQPRSHTSLKVSNSPEPQKAVEQEDELSDVSQGGSKATTPASTANSDVATIPTDTPLKEENEGFVKVTDAPNKSEISKHIEVQVAQETRNVSTGSAENEEKSEVQAIIESTPELDMDKDLSGYKGSSTPTKGIENKAFDRNTESLFEELSSAGSGLIGDVDEGADLLGMGREVENLILENTQLLETKNALNIVKNDLIAKVDELTCEKDVLQGELEAVKQAKLKLEEKNRELEEELRKARAEAEDARQKAKDDDDSDIPTAQRKRFTRVEMARVLMERNQYKERLMELQEAVRWTEMIRASRENPAMQEKKRSSIWQFFSRLFSSSSNTTKKPEPPVNLKYNAPTSHVTPSVKKRSSTLSQLPGDKSKAFDFLSEETEASLASRREQKREQYRQVKAHVQKEDGRVQAFGWSLPQKYKQVTNGQGENKMKNLPVPVYLRPLDEKDTSMKLWCAVGVNLSGGKTRDGGSVVGASVFYKDVAGLDTEGSKQRSASQSSLDKLDQELKEQQKELKNQEELSSLVWICTSTHSATKVLIIDAVQPGNILDSFTVCNSHVLCIASVPGARETDYPAGEDLSESGQVDKASLCGSMTSNSSAETDSLLGGITVVGCSAEGVTGAATSPSTNGASPVMDKPPEMEAENSEVDENVPTAEEATEATEGNAGSAEDTVDISQTGVYTEHVFTDPLGVQIPEDLSPVYQSSNDSDAYKDQISVLPNEQDLVREEAQKMSSLLPTMWLGAQNGCLYVHSSVAQWRKCLHSIKLKDSILSIVHVKGIVLVALADGTLAIFHRGVDGQWDLSNYHLLDLGRPHHSIRCMTVVHDKVWCGYRNKIYVVQPKAMKIEKSFDAHPRKESQVRQLAWVGDGVWVSIRLDSTLRLYHAHTYQHLQDVDIEPYVSKMLGTGKLGFSFVRITALMVSCNRLWVGTGNGVIISIPLTETNKTSGVPGNRPGSVIRVYGDENSDKVTPGTFIPYCSMAHAQLCFHGHRDAVKFFVAVPGQVISPQSSSSGTDLTGDKAGPSAQEPGSQTPLKSMLVISGGEGYIDFRMGDEGGESELLGEDLPLEPSVTKAERSHLIVWQVMYGNE
Relative expression [3]: 70

B2: ODF2 (protein, UniProt Q5BJF6 1-829, looked up)
Outer dense fiber protein 2: MSASSSGGSPRFPSCGKNGVTSLTQKKVLRAPCGAPSVTVTKSHKRGMKGDTVNVRRSVRVKTKVPWMPPGKSSARPVGCKWENPPHCLEITPPSSEKLVSVMRLSDLSTEDDDSGHCKMNRYDKKIDSLMNAVGCLKSEVKMQKGERQMAKRFLEERKEELEEVAHELAETEHENTVLRHNIERMKEEKDFTILQKKHLQQEKECLMSKLVEAEMDGAAAAKQVMALKDTIGKLKTEKQMTCTDINTLTRQKELLLQKLSTFEETNRTLRDLLREQHCKEDSERLMEQQGALLKRLAEADSEKARLLLLLQDKDKEVEELLQEIQCEKAQAKTASELSKSMESMRGHLQAQLRSKEAENSRLCMQIKNLERSGNQHKAEVEAIMEQLKELKQKGDRDKESLKKAIRAQKERAEKSEEYAEQLHVQLADKDLYVAEALSTLESWRSRYNQVVKEKGDLELEIIVLNDRVTDLVNQQQTLEEKMREDRDSLVERLHRQTAEYSAFKLENERLKASFAPMEDKLNQAHLEVQQLKASVKNYEGMIDNYKSQVMKTRLEADEVAAQLERCDKENKILKDEMNKEIEAARRQFQSQLADLQQLPDILKITEAKLAECQDQLQGYERKNIDLTAIISDLRSRIEHQGDKLEMAREKHQASQKENKQLSLKVDELERKLEATSAQNIEFLQVIAKREEAIHQSQLRLEEKTRECGTLARQLESAIEDARRQVEQTKEHALSKERAAQNKILDLETQLSRTKTELSQLRRSRDDADRRYQSRLQDLKDRLEQSESTNRSMQNYVQFLKSSYANVFGDGPYSTFLTSSPIRSRSPPA
Relative expression [3]: 19
